Consider 39 molecules from patent US9713613B2, “Methods and compositions for the treatment of cancer and related hyperproliferative disorders” (priority 2007, dated 2017).

One assay deals with endogenous SREBPs. The assay can be described thus: Luciferase reporter assay (pSRE-Luc, normalized by β-gal) in HEK293 cells. The assay is classed as cell-based, human. On the set-up: Luc/Gal: dose or concentration left out as unconfirmed. The method, then:
On day 0, HEK293 cells were plated out in triplicate at a density of 5×10^3/well onto a 96-well plate in a Dulbecco's modified Eagle's medium with 10% fetal bovine serum, 100 units/mL penicillin, and 100 μg/mL streptomycin sulfate. On day 2, the cells were transiently co-transfected with the following plasmids by using Lipofectamine reagent (Invitrogen): 0.4 μg/well pSRE-Luc (an SRE-1-driven luciferase reporter construct; Hua et al., 1995 J Biol Chem 270, 29422-7), and 0.1 μg/well a b-gal reporter in which the expression of β-gal is controlled by an actin promoter in a final volume of […]. After incubation for 5 hrs at 37° C., the cells were washed with phosphate-buffered saline and then incubated in 100 μl of Dulbecco's modified Eagle's medium with 10% lipid-depleted serum, […] penicillin, and 100 μg/mL streptomycin sulfate in the absence or presence of fatostatin A. After 20 hrs of incubation, the cells in each well were lysed with 20 μL of 1× Reporter Lysis Buffer (Promega), and aliquots were used for measurement of luciferase (10 μL) and β-galactosidase (10 μL) activities. For luciferase assay, photon production was detected as counts per second in a Wallac 1420 ARVOsx multilabel counter (PerkinElmer). For β-galactosidase assays, hydrolysis of O-nitrophenyl-β-D-galactosidase was measured after incubation for 0.5 h at 37° C. by a microplate reader at the wave length of 405 nm (Tecan). The luciferase activity (counts per second) was normalized by the activity of β-galactosidase (OD units). For overexpression of the N-terminal matured form of SREBP-1c, pCMV-SREBP-1c (1-436) was co-transfected with pSRE-Luc. pSRE-Luc and pCMV-SREBP-1c (1-436) were provided by J. L. Goldstein (University of Texas Southwestern Medical Center). […]

For the next assay, the system named is 3T3-L1 cells. The assay can be described thus: adipogenesis assay (formation of oil droplets). The assay is classed as cell-based, mouse. On the set-up: key: +: The analogues that completely inhibited the formation of oil droplets in cells were scored to be adipogenesis-inhibiting analogues. The following applies: formation of oil droplets in cells. The method, then:
The adipogenesis assay was performed as described (Choi et al., 2003).

Setting [1] is: entries 1-18 (FIG. 15), none = 9.4426.
Where [2] appears, read: entries 1, 40-44 (FIG. 17), None = 8.2181.
[3] abbreviates: entries 1, 35-39 (FIG. 17), None = 18.
The mark [4] stands for this setting: entries 1, 19-34 (FIG. 16), None = 15.0759.

Molecule `Cc1ccc(-c2csc(-c3ccncc3)n2)cc1` [Compound 6, 4-(4-p-tolylthiazol-2-yl)pyridine] showed a Luc/Gal with endogenous SREBPs (setting [1]) of 13.4689.
On to `CCCc1cc(-c2nc(-c3ccc(NC4CCCCC4)cc3)cs2)ccn1` [Compound 41, N-cyclohexyl-4-(2-(2-propylpyridin-4-yl)thiazol-4-yl)benzenamine], for which the Luc/Gal in the assay with endogenous SREBPs (setting [2]) came out at 6.5229.
The molecule `CCCc1cc(-c2nc(-c3ccc(C)cc3)c(C(=O)OC)s2)ccn1` [Compound 39, methyl 2-(2-propylpyridin-4-yl)-4-p-tolylthiazole-5-carboxylate] registered a Luc/Gal in the assay with endogenous SREBPs (setting [3]) of 14.93.
With `Clc1ccc(-c2csc(-c3ccccc3)n2)cc1` [Compound 33, 4-(4-chlorophenyl)-2-phenylthiazole], the Luc/Gal in the assay with endogenous SREBPs (setting [4]) turned out to be 17.8175.
For `CCc1cc(-c2nc(-c3ccc(C)cc3)cs2)ccn1` [Compound 37, 2-ethyl-4-(4-p-tolylthiazol-2-yl)pyridine], the Luc/Gal in the assay on endogenous SREBPs (setting [3]) was 9.87.
In the assay with endogenous SREBPs (setting [4]), `CCCc1cc(-c2nc(-c3ccc(Br)cc3)c(C(=O)O)s2)ccn1` [Compound 22, 4-(4-bromophenyl)-2-(2-propylpyridin-4-yl)thiazole-5-carboxylic acid] displayed a Luc/Gal of 21.5911.
For the molecule `CCCc1cc(-c2nc(-c3ccc(OC(=O)c4ccccc4)cc3)cs2)ccn1` [Compound 8, 4-(2-(2-propylpyridin-4-yl)thiazol-4-yl)phenylbenzoate], in the assay on endogenous SREBPs (setting [1]), the Luc/Gal worked out at 7.7585. The Inhibition of adipogenesis result with 3T3-L1 cells is listed as “+”.
In the assay on endogenous SREBPs (setting [3]), `CCCc1cc(-c2nc(-c3ccc(C)cc3)c(C(=O)O)s2)ccn1` [Compound 36, 2-(2-propylpyridin-4-yl)-4-p-tolylthiazole-5-carboxylic acid] returned a Luc/Gal of 18.99.
For the molecule `CCCc1cc(-c2nc(-c3ccc(NCC4CC4)cc3)cs2)ccn1` [Compound 21, N-(cyclopropylmethyl)-4-(2-(2-propylpyridin-4-yl)thiazol-4-yl)benzenamine], the Luc/Gal in the assay with endogenous SREBPs (setting [4]) is listed as 6.4378. In addition, in the assay with 3T3-L1 cells, the Inhibition of adipogenesis result was “+”.
`CCCc1cc(-c2nc(-c3ccc(NCc4ccccc4)cc3)cs2)ccn1` [Compound 20, N-benzyl-4-(2-(2-propylpyridin-4-yl)thiazol-4-yl)benzenamine]: the Luc/Gal with endogenous SREBPs (setting [4]) was determined as 5.6748. In addition, the Inhibition of adipogenesis entry in the assay on 3T3-L1 cells is recorded as “+”.
`CCCc1cc(-c2nc(-c3cccc(OC)c3)cs2)ccn1` [Compound 25, 4-(4-(3-methoxyphenyl)thiazol-2-yl)-2-propylpyridine]: the Luc/Gal with endogenous SREBPs (setting [4]) is given as 7.8536.
In turn, `CCCc1cc(-c2nc(-c3cccs3)cs2)ccn1` [Compound 34, 2-propyl-4-(4-(thiophen-2-yl)thiazol-2-yl)pyridine] came in with a Luc/Gal in the assay with endogenous SREBPs (setting [4]) of 12.1593. Moreover, in the assay with 3T3-L1 cells, the Inhibition of adipogenesis entry is “+”.
`Cc1ccc(-c2csc(-c3ccccc3)n2)cc1` [Compound 27, 2-phenyl-4-p-tolylthiazole] showed a Luc/Gal in the assay on endogenous SREBPs (setting [4]) of 13.8222.
Molecule `CCCc1cc(-c2nc(-c3ccccc3)cs2)ccn1` [Compound 3, 4-(4-phenylthiazol-2-yl)-2-propylpyridine] showed a Luc/Gal in the assay with endogenous SREBPs (setting [1]) of 7.4643.
Turning to `CCCc1cc(-c2nc(-c3ccccc3OC)cs2)ccn1` [Compound 26, 4-(4-(2-methoxyphenyl)thiazol-2-yl)-2-propylpyridine], in the assay with endogenous SREBPs (setting [4]), the Luc/Gal turned out to be 8.3046. In addition, the Inhibition of adipogenesis entry with 3T3-L1 cells is “+”.
`CCCc1cc(-c2nc(-c3ccc(OC)cc3)cs2)ccn1` [Compound 24, 4-(4-(4-methoxyphenyl)thiazol-2-yl)-2-propylpyridine]: in the assay on endogenous SREBPs (setting [4]), the Luc/Gal is 11.0367.
Turning to `CCCc1cc(-c2nc(-c3ccccc3O)cs2)ccn1` [Compound 29, 2-(2-(2-propylpyridin-4-yl)thiazol-4-yl)phenol], the Luc/Gal with endogenous SREBPs (setting [4]) stood at 8.2379.
On the same count and under the same terms, as for `CCc1cc(-c2nc(-c3ccc(Cl)cc3)cs2)ccn1` [Compound 32, 4-(4-(4-chlorophenyl)thiazol-2-yl)-2-ethylpyridine], the figure is 9.5798.
`CCCc1cc(-c2nc(-c3ccc(N)cc3)cs2)ccn1` [Compound 16, 4-(2-(2-propylpyridin-4-yl)thiazol-4-yl)benzenamine] showed a Luc/Gal in the assay with endogenous SREBPs (setting [1]) of 10.3338. Moreover, the Inhibition of adipogenesis result with 3T3-L1 cells is “+”.
`CCCc1cc(-c2nc(-c3ccc(OCC(=O)OC)cc3)cs2)ccn1` [Compound 10, methyl 2-(4-(2-(2-propylpyridin-4-yl)thiazol-4-yl)phenoxy)acetate] showed a Luc/Gal with endogenous SREBPs (setting [1]) of 10.7717.
Turning to `CCCc1cc(-c2nc(-c3ccc(NC(=O)OC(C)(C)C)cc3)cs2)ccn1` [Compound 40, tert-butyl 4-(2-(2-propylpyridin-4-yl)thiazol-4-yl)phenylcarbamate], the Luc/Gal in the assay with endogenous SREBPs (setting [2]) was found to be 2.4390.
`COc1ccc(-c2csc(-c3ccncc3)n2)cc1` [Compound 7, 4-(4-(4-methoxyphenyl)thiazol-2-yl)pyridine] gave a Luc/Gal in the assay with endogenous SREBPs (setting [1]) of 18.3174.
Regarding `CCCc1cc(-c2nc(-c3ccc(Cl)cc3)cs2)ccn1` [Compound 4, 4-(4-(4-chlorophenyl)thiazol-2-yl)-2-propylpyridine], the Luc/Gal in the assay with endogenous SREBPs (setting [1]) is given as 6.3808.
In the assay with endogenous SREBPs (setting [3]), `CCCc1cc(-c2ccc(-c3ccc(C)cc3)cc2)ccn1` [Compound 35] came in with a Luc/Gal of 11.36. The Inhibition of adipogenesis result in the assay on 3T3-L1 cells is reported as “+”.
In turn, `CCCc1cc(-c2nc(-c3ccc(F)cc3F)cs2)ccn1` [Compound 15, 4-(4-(2,4-difluorophenyl)thiazol-2-yl)-2-propylpyridine] showed a Luc/Gal in the assay with endogenous SREBPs (setting [1]) of 10.8383.
Still for that read-out and setting: as for `CCCc1cc(-c2nc(-c3ccc(Cl)c(Cl)c3)cs2)ccn1` [Compound 13, 4-(4-(3,4-dichlorophenyl)thiazol-2-yl)-2-propylpyridine], the figure is 5.2391.
In the case of `CCCc1cc(-c2nc(-c3ccc(NS(=O)(=O)c4cccc5cccnc45)cc3)cs2)ccn1` [Compound 43, N-(4-(2-(2-propylpyridin-4-yl)thiazol-4-yl)phenyl)-8-quinolinesulfonamide], in the assay on endogenous SREBPs (setting [2]), the Luc/Gal came to 2.8506.
With `CCCc1cc(-c2nc(-c3ccccc3)c(C(=O)O)s2)ccn1` [Compound 38, 4-phenyl-2-(2-propylpyridin-4-yl)thiazole-5-carboxylic acid], in the assay with endogenous SREBPs (setting [3]), the Luc/Gal stood at 22.66.
`CCCc1cc(-c2nc(-c3ccc(F)cc3)cs2)ccn1` [Compound 14, 4-(4-(4-fluorophenyl)thiazol-2-yl)-2-propylpyridine] returned a Luc/Gal in the assay with endogenous SREBPs (setting [1]) of 9.6605.
In turn, `CCCc1cc(-c2nc(-c3ccc(NC(C)=O)cc3)cs2)ccn1` [Compound 18, N-(4-(2-(2-propylpyridin-4-yl)thiazol-4-yl)phenyl)acetamide] returned a Luc/Gal in the assay with endogenous SREBPs (setting [1]) of 11.7685. Moreover, the Inhibition of adipogenesis result in the assay on 3T3-L1 cells is on record as “+”.
In the assay with endogenous SREBPs (setting [4]), `Clc1ccc(-c2csc(-c3ccncc3)n2)cc1` [Compound 31, 4-(4-(4-chlorophenyl)thiazol-2-yl)pyridine] came in with a Luc/Gal of 16.9971.
On to `CCCc1cc(-c2nc(-c3ccc(NS(=O)(=O)c4cccs4)cc3)cs2)ccn1` [Compound 44, N-(4-(2-(2-propylpyridin-4-yl)thiazol-4-yl)phenyl)-2-thiophenesulfonamide], for which the Luc/Gal in the assay with endogenous SREBPs (setting [2]) stood at 1.8538.
In turn, `COc1ccc(-c2nc(-c3ccc(Cl)cc3)cs2)cc1OC` [Compound 12, 4-(4-chlorophenyl)-2-(3,4-dimethoxyphenyl)thiazole] had a Luc/Gal in the assay on endogenous SREBPs (setting [1]) of 5.9214.
In the assay with endogenous SREBPs (setting [4]), `CCCc1cc(-c2nc(-c3ccc(Br)cc3)c(C(=O)NC(C)C)s2)ccn1` [Compound 30, 4-(4-bromophenyl)-N-isopropyl-2-(2-propylpyridin-4-yl)thiazole-5-carboxamide] registered a Luc/Gal of 16.0226.
Molecule `CCc1ccc(-c2csc(-c3ccncc3)n2)cc1` [Compound 5, 4-(4-(4-ethylphenyl)thiazol-2-yl)pyridine] displayed a Luc/Gal in the assay with endogenous SREBPs (setting [1]) of 7.6190.
On the same count and under the same terms, the result for `CCCc1cc(-c2nc(-c3ccc(Br)cc3)cs2)ccn1` [Compound 2, 4-(4-(4-bromophenyl)thiazol-2-yl)-2-propylpyridine] reads 4.5130.
Regarding `CCCc1cc(-c2nc(-c3ccc(O)cc3)cs2)ccn1` [Compound 9, 4-(2-(2-propylpyridin-4-yl)thiazol-4-yl)phenol], the Luc/Gal with endogenous SREBPs (setting [1]) came to 14.5234. Moreover, the Inhibition of adipogenesis result in the assay with 3T3-L1 cells is “+”.
Turning to `CCCc1cc(-c2nc(-c3cccc(O)c3)cs2)ccn1` [Compound 28, 3-(2-(2-propylpyridin-4-yl)thiazol-4-yl)phenol], the Luc/Gal with endogenous SREBPs (setting [4]) was found to be 12.7791.
In the assay on endogenous SREBPs (setting [2]), `CCCc1cc(-c2nc(-c3ccc(NS(=O)(=O)c4ccc(C)cc4)cc3)cs2)ccn1` [Compound 42, 4-(2-(2-propylpyridin-4-yl)thiazol-4-yl)-N-tosylbenzenamine] returned a Luc/Gal of 3.3957.
